Experimental data as given in patent US11834458B2, “Anti-cancer nuclear hormone receptor-targeting compounds” (Nuvation Bio Inc., priority 2021, dated 2023).
Where two headings read alike, the source gives them in different places.

How the values were obtained:
[1] = molecular target: AR (Homo sapiens (Human), UniProt P10275, T878A); experiment: AR binding assay
Procedure: AR binding assay: To assess AR binding, test compound (top dose 10 μM, 4 fold serial dilution, 8 point dose response) and control (progesterone) were transferred to the assay plate. Cytosol from LnCaP cells was added to the plate, followed by addition of radiolabeled ^3H-R1881 at a final concentration of 1 nM. The plate was sealed, and the reaction was incubated at 300 rpm at 4° C. for 24 hrs. Radioligand absorption buffer (10 mM Tris-HCl, pH 7.4; 1.5 mM EDTA; 1 mM DTT; 0.25% charcoal; 0.0025% dextran) was then added to the plate, mixed, and incubated at 4° C. for 15 minutes. The plate was then centrifuged at 3000 rpm for 30 minutes at 4° C. The supernatant was transferred to the scint-tube and Tri-carb was used for scintillation counting. The data was analyzed using GraphPadPrism v5.0 and binding IC50 was determined as the concentration where 50% inhibition of radioligand binding was observed.

[2] = system: T47D cells; experiment: Cell viability assay, T47D; type: cell-based; conditions: Homo sapiens, 144 h
Procedure: (§1) Cell viability assay: LNCap, 22Rv1, MCF7, MDAMB361, T47D, and IEC6 cells are seeded at a density of 500-2000 cells/well in 96 well plates, and a ‘T0’ (timepoint 0) was included along with the assay plate. The plates are then incubated at 37° C., 5% CO2 in a cell culture incubator overnight. On the next day, the ‘T0’ plate was assayed using CellTiterGlo (Promega, Inc) according to the manufacturer's instructions. The appropriate compounds are diluted in DMSO and added to the assay plate (final DMSO concentration of 0.1-0.2%) on the next day. The assay plates are incubated for 6 days at 37° C., 5% CO2. After the incubation period, the plates are assayed using CellTiterGlo (Promega, Inc) according to the manufacturer's instructions and luminescence was read on the EnVision plate reader. Inhibition of the tested compounds was determined by the following formula: Inhibition rate (%)=(1−(RLU compound−RLU day0)/(RLU control−RLU day0))*100%. GraphPadPrism was used to analyze the data and determine GI50/IC50 values.

[3] = molecular target: full-length androgen receptor (Homo sapiens (Human), UniProt P10275); experiment: AR antagonism assay; type: cell-based
full-length androgen receptor, sequence (P10275 whole entry): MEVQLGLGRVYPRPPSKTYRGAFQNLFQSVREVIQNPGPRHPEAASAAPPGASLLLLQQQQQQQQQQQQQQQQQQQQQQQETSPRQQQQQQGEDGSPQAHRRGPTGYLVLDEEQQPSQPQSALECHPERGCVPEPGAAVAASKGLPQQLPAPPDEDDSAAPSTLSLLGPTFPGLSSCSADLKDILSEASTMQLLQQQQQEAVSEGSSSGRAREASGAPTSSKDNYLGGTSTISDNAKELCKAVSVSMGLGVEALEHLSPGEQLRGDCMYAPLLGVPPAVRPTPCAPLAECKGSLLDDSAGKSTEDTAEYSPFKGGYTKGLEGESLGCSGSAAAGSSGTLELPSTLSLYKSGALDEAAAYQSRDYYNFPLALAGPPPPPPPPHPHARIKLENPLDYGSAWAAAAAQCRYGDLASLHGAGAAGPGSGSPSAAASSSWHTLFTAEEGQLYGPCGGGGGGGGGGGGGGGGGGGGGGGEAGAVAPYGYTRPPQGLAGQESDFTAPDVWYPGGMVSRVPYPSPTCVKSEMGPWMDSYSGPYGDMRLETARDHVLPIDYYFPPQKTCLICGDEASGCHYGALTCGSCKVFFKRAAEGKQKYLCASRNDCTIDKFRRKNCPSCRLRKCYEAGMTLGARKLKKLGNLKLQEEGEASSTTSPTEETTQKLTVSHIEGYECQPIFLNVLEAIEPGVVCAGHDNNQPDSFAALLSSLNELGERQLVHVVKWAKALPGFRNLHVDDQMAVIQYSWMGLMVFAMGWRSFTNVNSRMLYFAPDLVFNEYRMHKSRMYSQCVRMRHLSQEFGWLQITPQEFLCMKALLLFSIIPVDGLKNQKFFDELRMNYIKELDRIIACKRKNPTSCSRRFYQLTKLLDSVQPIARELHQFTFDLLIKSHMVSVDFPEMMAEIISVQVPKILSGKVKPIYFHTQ
Procedure: AR antagonism assay: To evaluate AR antagonist activity, test compound was added to the assay plate (top dose 10 μM, 3 fold serial dilution, 10 point dose response). HEK293 cells stably expressing the full-length androgen receptor were seeded at a density of 20,000 cells/well in the assay plate. The assay plate was then incubated at room temperature for 10 minutes and at 37° C., 5% CO2 for 20 minutes. Testosterone was added to the assay plate at 1 nM final concentration and the assay plate incubated at 37° C., 5% CO2 for 20 h. After the incubation period, Steady-glo was added to the assay plate and mixed at room temperature for 20 minutes on an orbital shaker, before reading out on the EnVision plate reader.

[4] = system: LNCap cells; experiment: Cell viability assay, LNCap; type: cell-based; conditions: Homo sapiens, 144 h
Procedure: as §1

[5] = system: 22Rv1 cells; experiment: Cell viability assay, 22Rv1; type: cell-based; conditions: Homo sapiens
Procedure: as §1

[6] = system: IEC6 cells; experiment: Cell viability assay, IEC6; type: cell-based; conditions: Rattus norvegicus
Procedure: as §1

[7] = T47D, read-out: T47D (GI50, nM)
[8] = LNCaP, read-out: LNCap (GI50, nM)
[9] = 144 h, 22RV1 cells, 6 days, CellTiterGlo, read-out: 22RV1 (GI50)
[10] = cytosol from LnCaP cells, 3H-R1881 1 nM, 4° C. 24 hrs, read-out: AR binding
[11] = 144 h, IEC-6 cells, 6 days, CellTiterGlo, read-out: IEC-6 (IC50)
[12] = LNCap cells, 6 days, CellTiterGlo, read-out: LNCap (GI50)
[13] = IEC-6, 144 h, read-out: IEC-6 (IC50, nM)

AR, sequence (P10275 whole entry T878A): as the sequence (P10275 whole entry) above, with T878A counted along it

Structure (SMILES)	GI50 [2, 7]	IC50 [3]	GI50 [4, 8]	IC50 [6, 11]	GI50 [4, 12]	IC50 [6, 13]	further results
CC[C@@]1(O)C(=O)OCc2c1cc1n(c2=O)Cc2cc3c(CN(C)C)c(OC4CCN(CCCCCCCN(C)c5ccc([C@H]6C[C@@]7(C)C(CC[C@]7(OC(C)=O)C(C)=O)C7CCC8=CC(=O)CCC8=C76)cc5)CC4)ccc3nc2-1 (stereo partly drawn) [Compound 10, (11R,13S,17R)-17-Acetyl-11-(4-((7-(4-(((S)-10-((dimethylamino)methyl)-4-ethyl-4-hydroxy-3,14-dioxo-3,4,12,14-tetrahydro-1H-pyrano[3′,4′:6,7]indolizino[1,2-b]quinolin-9-yl)oxy)piperidin-1-yl)heptyl)(methyl)amino)phenyl)-13-methyl-3-oxo-2,3,6,7,8,11,12,13,14,15,16,17-dodecahydro-1H-cyclopenta[a]phenanthren-17-yl-acetate]	10 to 500 nM	> 1000 nM	10 to 500 nM	–	–	–	IC50 [1]: 10 to 500 nM
CC[C@@]1(O)C(=O)OCc2c1cc1n(c2=O)Cc2cc3c(CN4CCN(CC5CCN(c6ccc(C(=O)N[C@H]7CC[C@H](Oc8ccc(C#N)c(Cl)c8)CC7)nn6)CC5)CC4)c(O)ccc3nc2-1 [Compound 11, N-((1r,4r)-4-(3-Chloro-4-cyanophenoxy)cyclohexyl)-6-(4-((4-(((S)-4-ethyl-4,9-dihydroxy-3,14-dioxo-3,4,12,14-tetrahydro-1H-pyrano[3′,4′:6,7]indolizino[1,2-b]quinolin-10-yl)methyl)piperazin-1-yl)methyl)piperidin-1-yl)pyridazine-3-carboxamide]	–	10 to 500 nM	–	501 to 1000 nM	10 to 500 nM	–	GI50 [5, 9]: 10 to 500 nM; IC50 [1, 10]: 10 to 500 nM
CC[C@@]1(O)C(=O)OCc2c1cc1n(c2=O)Cc2cc3c(CN(C)C)c(OC4CCN(CCCCCCN(C)c5ccc([C@H]6C[C@@]7(C)C(CC[C@]7(OC(C)=O)C(C)=O)C7CCC8=CC(=O)CCC8=C76)cc5)CC4)ccc3nc2-1 (stereo partly drawn) [Compound 9, (11R,13S,17R)-17-Acetyl-11-(4-((6-(4-(((S)-10-((dimethylamino)methyl)-4-ethyl-4-hydroxy-3,14-dioxo-3,4,12,14-tetrahydro-1H-pyrano[3′,4′:6,7]indolizino[1,2-b]quinolin-9-yl)oxy)piperidin-1-yl)hexyl)(methyl)amino)phenyl)-13-methyl-3-oxo-2,3,6,7,8,11,12,13,14,15,16,17-dodecahydro-1H-cyclopenta[a]phenanthren-17-yl acetate]	–	> 1000 nM	–	> 1000 nM	501 to 1000 nM	–	IC50 [1, 10]: 10 to 500 nM; GI50 ([2]; T47D cells, 6 days, CellTiterGlo, read-out: T47D (GI50)): 10 to 500 nM
CC[C@@]1(O)C(=O)OCc2c1cc1n(c2=O)Cc2cc3c(CN(C)C)c(OC(=O)N4CCN(C(=O)C5CCN(c6ccc(C(=O)N[C@H]7CC[C@H](Oc8ccc(C#N)c(Cl)c8)CC7)nn6)CC5)CC4)ccc3nc2-1 [Compound 26, (S)-10-((Dimethylamino)methyl)-4-ethyl-4-hydroxy-3,14-dioxo-3,4,12,14-tetrahydro-1H-pyrano[3′,4′:6,7]indolizino[1,2-b]quinolin-9-yl 4-(1-(6-(((1r,4r)-4-(3-chloro-4-cyanophenoxy)cyclohexyl)carbamoyl)pyridazin-3-yl)piperidine-4-carbonyl)piperazine-1-carboxylate]	–	–	10 to 500 nM	–	–	> 1000 nM	GI50 ([5]; 22Rv1, 144 h, read-out: 22RV1 (GI50, nM)): 10 to 500 nM
CC[C@@]1(O)C(=O)OCc2c1cc1n(c2=O)Cc2cc3c(CN(C)C(=O)CO[C@H]4CC[C@H]5[C@@H]6CC[C@H]7CC(=O)CC[C@]7(C)[C@H]6CC[C@]45C)c(O)ccc3nc2-1 [Compound 25, 2-(((5S,8R,9S,10S,13S,14S,17S)-10,13-Dimethyl-3-oxohexadecahydro-1H-cyclopenta[a]phenanthren-17-yl)oxy)-N—(((S)-4-ethyl-4,9-dihydroxy-3,14-dioxo-3,4,12,14-tetrahydro-1H-pyrano[3′,4′:6,7]indolizino[1,2-b]quinolin-10-yl)methyl)-N-methylacetamide]	–	–	–	> 1000 nM	10 to 500 nM	–	GI50 [5, 9]: 10 to 500 nM
CC[C@@]1(O)C(=O)OCc2c1cc1n(c2=O)Cc2cc3c(CN(C)C)c(OC(=O)N4C[C@H](C)N(CCCCCCN(C)c5ccc([C@H]6C[C@@]7(C)[C@@H](CC[C@]7(OC(C)=O)C(C)=O)[C@@H]7CCC8=CC(=O)CCC8=C76)cc5)C[C@H]4C)ccc3nc2-1 [Compound 24, (S)-10-((Dimethylamino)methyl)-4-ethyl-4-hydroxy-3,14-dioxo-3,4,12,14-tetrahydro-1H-pyrano[3′,4′:6,7]indolizino[1,2-b]quinolin-9-yl (2R,5S)-4-(6-((4-((8S,11R,13S,14S,17R)-17-acetoxy-17-acetyl-13-methyl-3-oxo-2,3,6,7,8,11,12,13,14,15,16,17-dodecahydro-1H-cyclopenta[a]phenanthren-11-yl)phenyl)(methyl)amino)hexyl)-2,5-dimethylpiperazine-1-carboxylate]	10 to 500 nM	–	10 to 500 nM	–	–	501 to 1000 nM	–
CCc1c2c(nc3ccc(OC(=O)N4CCN(CCCCCCN(C)c5ccc([C@H]6C[C@@]7(C)[C@@H](CC[C@]7(OC(C)=O)C(C)=O)[C@@H]7CCC8=CC(=O)CCC8=C76)cc5)CC4)cc13)-c1cc3c(c(=O)n1C2)COC(=O)[C@]3(O)CC [Compound 4, (S)-4,11-diethyl-4-hydroxy-3,14-dioxo-3,4,12,14-tetrahydro-1H-pyrano[3′,4′:6,7]indolizino[1,2-b]quinolin-9-yl 4-(6-((4-((8S,11R,13S,14S,17R)-17-acetoxy-17-acetyl-13-methyl-3-oxo-2,3,6,7,8,11,12,13,14,15,16,17-dodecahydro-1H-cyclopenta[a]phenanthren-11-yl)phenyl)(methyl)amino)hexyl)piperazine-1-carboxylate]	10 to 500 nM	–	10 to 500 nM	–	–	–	–
CC[C@@]1(O)C(=O)OCc2c1cc1n(c2=O)Cc2cc3c(CN(C)C)c(OC(=O)N4C[C@@H](C)N(CCCCCCN(C)c5ccc([C@H]6C[C@@]7(C)[C@@H](CC[C@]7(OC(C)=O)C(C)=O)[C@@H]7CCC8=CC(=O)CCC8=C76)cc5)C[C@@H]4C)ccc3nc2-1 [Compound 23, (S)-10-((Dimethylamino)methyl)-4-ethyl-4-hydroxy-3,14-dioxo-3,4,12,14-tetrahydro-1H-pyrano[3′,4′:6,7]indolizino[1,2-b]quinolin-9-yl (2S,5R)-4-(6-((4-((8S,11R,13S,14S,17R)-17-acetoxy-17-acetyl-13-methyl-3-oxo-2,3,6,7,8,11,12,13,14,15,16,17-dodecahydro-1H-cyclopenta[a]phenanthren-11-yl)phenyl)(methyl)amino)hexyl)-2,5-dimethylpiperazine-1-carboxylate]	10 to 500 nM	–	501 to 1000 nM	–	–	10 to 500 nM	–
CC[C@@]1(O)C(=O)OCc2c1cc1n(c2=O)Cc2cc3c(CN(C)C)c(OC(=O)N4C5CCC4CN(CCCCCCN(C)c4ccc([C@H]6C[C@@]7(C)[C@@H](CC[C@]7(OC(C)=O)C(C)=O)[C@@H]7CCC8=CC(=O)CCC8=C76)cc4)C5)ccc3nc2-1 [Compound 22, (S)-10-((Dimethylamino)methyl)-4-ethyl-4-hydroxy-3,14-dioxo-3,4,12,14-tetrahydro-1H-pyrano[3′,4′:6,7]indolizino[1,2-b]quinolin-9-yl 3-(6-((4-((8S,11R,13S,14S,17R)-17-acetoxy-17-acetyl-13-methyl-3-oxo-2,3,6,7,8,11,12,13,14,15,16,17-dodecahydro-1H-cyclopenta[a]phenanthren-11-yl)phenyl)(methyl)amino)hexyl)-3,8-diazabicyclo[3.2.1]octane-8-carboxylate]	10 to 500 nM	–	10 to 500 nM	–	–	10 to 500 nM	–
